Measurements reported in publication PMC9471048, “The signaling and selectivity of α‐adrenoceptor agonists for the human α2A, α2B and α2C‐adrenoceptors and comparison with human α1 and β‐adrenoceptors” (Pharmacology Research & Perspectives, 2022).
Like-named read-outs stand apart in the source and are kept apart here.

What was measured:
human α2A‐adrenoceptor [1] = target: T1, human α2A‐adrenoceptor (Homo sapiens, UniProt P08913); conditions: for Log EC50 (Gs), CRE‐SPAP (without forskolin) / % inhibition, CRE‐SPAP (with forskolin): CHO‐α2A (cell line 1); for Log EC50 (Gs), CRE‐SPAP (without forskolin): absence of forskolin; for % inhibition, CRE-SPAP (with forskolin): from 3 μM forskolin control; for % inhibition, CRE‐SPAP (with forskolin): % inhibition from the 3 μM forskolin control, inhibition only; for Log efficacy ratio (KD/IC50): CHO‐α2A, binding KD / Gi IC50 of CRE‐SPAP
T1 sequence (P08913 1-465): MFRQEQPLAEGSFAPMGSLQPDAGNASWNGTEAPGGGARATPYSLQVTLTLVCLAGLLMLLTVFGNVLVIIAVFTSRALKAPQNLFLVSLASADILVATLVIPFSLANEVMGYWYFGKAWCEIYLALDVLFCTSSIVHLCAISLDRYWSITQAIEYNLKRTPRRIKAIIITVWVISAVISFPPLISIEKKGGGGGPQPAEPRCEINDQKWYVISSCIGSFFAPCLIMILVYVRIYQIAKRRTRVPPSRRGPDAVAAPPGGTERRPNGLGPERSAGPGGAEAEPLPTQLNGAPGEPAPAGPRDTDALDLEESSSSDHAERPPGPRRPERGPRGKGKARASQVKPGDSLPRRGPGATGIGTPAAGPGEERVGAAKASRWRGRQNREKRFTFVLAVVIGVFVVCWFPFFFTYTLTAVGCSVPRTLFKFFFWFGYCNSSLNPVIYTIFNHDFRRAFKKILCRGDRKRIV

human α2C‐adrenoceptor [2] = target: T2, human α2C‐adrenoceptor (Homo sapiens, UniProt P18825); conditions: for Log efficacy ratio (KD/IC50): log KD from 3H‐rauwolscine binding versus CRE‐SPAP log IC50
T2 sequence (P18825 1-462): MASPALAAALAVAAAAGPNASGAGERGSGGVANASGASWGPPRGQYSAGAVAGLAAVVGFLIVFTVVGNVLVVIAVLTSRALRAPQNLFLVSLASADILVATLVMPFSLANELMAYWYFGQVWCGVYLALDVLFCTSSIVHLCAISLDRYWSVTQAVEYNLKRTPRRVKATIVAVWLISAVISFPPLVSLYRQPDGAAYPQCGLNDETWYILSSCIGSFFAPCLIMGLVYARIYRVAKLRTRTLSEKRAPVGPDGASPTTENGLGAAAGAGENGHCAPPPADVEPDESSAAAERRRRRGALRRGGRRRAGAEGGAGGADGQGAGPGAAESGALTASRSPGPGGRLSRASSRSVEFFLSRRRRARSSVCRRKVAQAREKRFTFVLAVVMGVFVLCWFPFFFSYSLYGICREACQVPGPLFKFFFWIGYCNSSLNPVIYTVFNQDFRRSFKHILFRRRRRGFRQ

human α2A‐adrenoceptor [3] = target: T1, human α2A‐adrenoceptor; assay: 3H‐rauwolscine whole cell binding in CHO‐α2A cells; parameters: expressed in transfected cells; host or cells: CHO-K1 with CRE-SPAP reporter; conditions: for Selectivity ratio α2A vs α2B (higher affinity for α2A) / Selectivity ratio α2A vs α2C (higher affinity for α2A): fold, from KD values, 1 = no selectivity
human α2C‐adrenoceptor [4] = target: T2, human α2C‐adrenoceptor; assay: 3H‐rauwolscine whole cell binding in CHO‐α2C cells; parameters: expressed in transfected cells; host or cells: CHO-K1 with CRE-SPAP reporter; conditions: for Selectivity ratio α2B vs α2C (higher affinity for α2C): fold, from KD values, 1 = no selectivity
human α2A‐adrenoceptor [5] = target: T1, human α2A‐adrenoceptor; assay: ERK1/2‐phosphorylation in CHO‐α2A cells; assay type: cell-based; parameters: expressed in transfected cells; host or cells: CHO-K1 with CRE-SPAP reporter; conditions: for EC50: read-out: Log EC50, ERK1/2‐phosphorylation (converted)
human α2C‐adrenoceptor [6] = target: T2, human α2C‐adrenoceptor; assay: ERK1/2‐phosphorylation in CHO‐α2C cells; assay type: cell-based; parameters: expressed in transfected cells; host or cells: CHO-K1 with CRE-SPAP reporter; conditions: for EC50: read-out: Log EC50, ERK1/2‐phosphorylation (converted)
[7] = CHO‐α2C cells, CRE‐SPAP production in the absence of forskolin
[8] = 3H‐rauwolscine whole cell binding, living cells, negative log KD, mean ± SEM, read-out: Log KD, CHO‐α2C (converted)
[9] = CHO‐α2C cells, 3H‐rauwolscine whole cell binding, given as negative log KD, mean only (SEM in Table 4), read-out: Log KD (converted)
[10] = CHO‐α2C cells, given as negative log EC50, mean ± SEM
[11] = CHO‐α2C cells, % inhibition from the 3 μM forskolin control, mean ± SEM
[12] = Log IC50 (Gi), CRE‐SPAP (with forskolin), CHO‐α2C cells, inhibition of 3 μM forskolin‐stimulated CRE‐SPAP production, given as negative log IC50, mean ± SEM
[13] = 3H‐rauwolscine whole cell binding, living cells, negative log KD, mean ± SEM, read-out: Log KD, CHO‐α2A (converted)
[14] = CHO‐α2A, 3H‐rauwolscine whole cell binding, given as negative log KD, read-out: Log KD (binding) (converted)
[15] = CHO‐α2A, maximum response compared to 10 μM PDBu
[16] = CHO‐α2C cells, maximum response compared to 10 μM PDBu, mean ± SEM

Row | Structure (SMILES) | Log EC50 (Gs), CRE‐SPAP (without forskolin) (human α2A‐adrenoceptor [1]) | IC50 (human α2C‐adrenoceptor [2]) [µM] | Log EC50 (Gs), CRE‐SPAP (without forskolin) (human α2C‐adrenoceptor [2]; [7]) | Kd (human α2C‐adrenoceptor [4]; [8]) [µM] | Kd (human α2C‐adrenoceptor [4]; [9]) [µM] | EC50 (human α2A‐adrenoceptor [5]; CHO‐α2A) [µM] | EC50 (human α2C‐adrenoceptor [6]; [10]) [µM] | % inhibition, CRE‐SPAP (with forskolin) (human α2A‐adrenoceptor [1]) [%] | Log efficacy ratio (KD/IC50) (human α2A‐adrenoceptor [1]) | % inhibition, CRE‐SPAP (with forskolin) (human α2C‐adrenoceptor [2]; [11]) [%] | Log efficacy ratio (KD/IC50) (human α2C‐adrenoceptor [2]; CHO‐α2C cells) | IC50 (human α2C‐adrenoceptor [2]; [12]) [µM] | Kd (human α2A‐adrenoceptor [3]; [13]) [µM] | Kd (human α2A‐adrenoceptor [3]; [14]) [µM] | Selectivity ratio α2A vs α2B (higher affinity for α2A) (human α2A‐adrenoceptor [3]) | Selectivity ratio α2A vs α2C (higher affinity for α2A) (human α2A‐adrenoceptor [3]) | Selectivity ratio α2B vs α2C (higher affinity for α2C) (human α2C‐adrenoceptor [4]) | % 10 μM PDBu, ERK1/2‐phosphorylation (human α2A‐adrenoceptor [5]; [15]) [%] | % 10 μM PDBu, ERK1/2‐phosphorylation (human α2C‐adrenoceptor [6]; [16]) [%] | IC50 (human α2A‐adrenoceptor [1]) [µM] | other results
1 | CC(CCc1ccc(O)cc1)NCCc1ccc(O)c(O)c1 (stereo not drawn) [Dobutamine] | No response | 20.9 | No response | 5.5 | 5.5 | 2 | 0.759 | – | – | – | – | – | – | – | – | – | – | – | – | – | Log IC50 (Gi), CRE‐SPAP (with forskolin) (human α2A‐adrenoceptor [1]; CHO‐α2A (cell line 1, 5830 fmol/mg protein), 3 μM forskolin): No response; Kd (human α2A‐adrenoceptor [3]; read-out: Log KD (binding) (converted)): 20.4 µM; Kd (human α2A‐adrenoceptor [3]; read-out: Log KD, CHO‐α2A (converted)): 20.4 µM
2 | Cc1cccc([C@H](C)c2cnc[nH]2)c1C [Dexmedetomidine] | – | – | – | – | – | – | – | – | – | – | – | – | – | – | – | – | – | – | – | – | % 3 μM forskolin, CRE‐SPAP (without forskolin) (human α2A‐adrenoceptor [1]): 23.6 ± 2.7%; % inhibition, CRE‐SPAP (with forskolin) (human α2C‐adrenoceptor [2]): 73.4 ± 4.4%; Log EC50 (Gs), CRE‐SPAP (without forskolin) (human α2C‐adrenoceptor [2]): No response; IC50 (human α2C‐adrenoceptor [2]; Log IC50 (Gi), CRE‐SPAP (with forskolin)): 0.000692 µM; higher affinity for α2 than α1‐adrenoceptor subtypes (human α2A‐adrenoceptor [3]): 100 fold; Kd (human α2C‐adrenoceptor [4]; read-out: Log KD (converted)): 0.0302 µM; Kd (human α2C‐adrenoceptor [4]; read-out: Log KD, CHO‐α2C (converted)): 0.0302 µM; % 10 μM PDBu, ERK1/2‐phosphorylation (human α2A‐adrenoceptor [5]): 138.5 ± 15.4%; % 10 μM PDBu, ERK1/2‐phosphorylation (human α2C‐adrenoceptor [6]): 153.0 ± 18.5%; EC50 (human α2C‐adrenoceptor [6]): 0.000263 µM
3 | c1ccc2c(CC3=NCCN3)cccc2c1 [Naphazoline] | No response | – | No response | 0.398 | 0.398 | 0.00191 | 0.0126 | 83.1 ± 3.6 | 0.78 | 81.3 ± 4.2 | 0.72 | 0.0759 | 0.0977 | 0.0977 | 16.2 | 4.1 | 4.0 | 118.1 ± 9.0 | 157.8 ± 12.6 | – | % inhibition, CRE-SPAP (with forskolin) (human α2A‐adrenoceptor [1]; CHO-α2A cell line 2, 4724 fmol/mg protein): 69.4 ± 5.8%; % inhibition, CRE-SPAP (with forskolin) (human α2A‐adrenoceptor [1]; CHO-α2A cell line 3, 121 fmol/mg protein): 24.8 ± 4.3%; IC50 (human α2A‐adrenoceptor [1]; Log IC50 (Gi), CRE-SPAP (with forskolin), CHO-α2A cell line 2, expression 4724 fmol/mg protein, 3 μM forskolin): 0.0575 µM; IC50 (human α2A‐adrenoceptor [1]; Log IC50 (Gi), CRE-SPAP (with forskolin), CHO-α2A cell line 3, expression 121 fmol/mg protein, 3 μM forskolin): 0.417 µM; IC50 (human α2A‐adrenoceptor [1]; Log IC50 (Gi), CRE‐SPAP (with forskolin), CHO‐α2A (cell line 1, 5830 fmol/mg protein), 3 μM forskolin): 0.0162 µM
4 | NCC(O)c1ccc(O)cc1 (stereo not drawn) [Octopamine] | No response | 52.5 | No response | – | – | 4.79 | 7.76 | 98.1 ± 5.7 | – | 86.3 ± 5.2 | – | – | – | 417 | – | – | – | 124.1 ± 11.7 | 153.8 ± 17.9 | 132 | Kd (human α2A‐adrenoceptor [3]; 3H‐rauwolscine whole cell binding, ^app: apparent KD, IC50 from extrapolated curve as not all specific binding was inhibited, read-out: Log KD (apparent), CHO‐α2A (converted)): 417 µM; IC50 (human α2C‐adrenoceptor [4]; 3H‐rauwolscine whole cell binding, no KD obtained, read-out: IC50 in binding, CHO‐α2C): ~1000 µM
5 | c1ccc(C2CC2)c(OCC2=NCCN2)c1 [Cirazoline] | No response | – | No response | 0.851 | 0.851 | 0.158 | 0.0832 | 43.6 ± 4.4 | −0.16 | 74.2 ± 2.1 | 0.41 | 0.331 | 0.417 | 0.417 | 16.2 | 2.0 | 7.9 | 113.0 ± 14.3 | 139.1 ± 10.2 | 0.603 | –
